T1: MIK2 (MALE DISCOVERER 1-INTERACTING RECEPTOR-LIKE KINASE 2) ectodomain, wild type (Arabidopsis thaliana, UniProt Q8VZG8 44-709)
T1 chain: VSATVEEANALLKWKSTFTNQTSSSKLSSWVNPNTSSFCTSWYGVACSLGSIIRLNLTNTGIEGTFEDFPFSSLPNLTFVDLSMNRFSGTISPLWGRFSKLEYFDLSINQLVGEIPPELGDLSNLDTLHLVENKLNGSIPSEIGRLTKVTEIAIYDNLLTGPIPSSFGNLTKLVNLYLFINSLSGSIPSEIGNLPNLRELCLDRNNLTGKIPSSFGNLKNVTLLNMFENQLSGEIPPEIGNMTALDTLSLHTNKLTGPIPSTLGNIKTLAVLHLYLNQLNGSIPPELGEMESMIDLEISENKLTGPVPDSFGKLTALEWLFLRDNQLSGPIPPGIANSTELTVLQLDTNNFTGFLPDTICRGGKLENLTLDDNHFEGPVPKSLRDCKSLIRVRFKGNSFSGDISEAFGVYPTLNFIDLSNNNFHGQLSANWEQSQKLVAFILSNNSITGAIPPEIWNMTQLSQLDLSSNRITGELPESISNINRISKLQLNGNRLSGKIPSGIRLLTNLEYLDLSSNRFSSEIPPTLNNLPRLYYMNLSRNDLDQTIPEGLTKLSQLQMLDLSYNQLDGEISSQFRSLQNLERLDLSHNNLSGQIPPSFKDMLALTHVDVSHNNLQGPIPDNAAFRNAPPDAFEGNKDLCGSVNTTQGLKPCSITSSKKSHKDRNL


Key:
Arabidopsis Col-0 = conditions: selection criterion; ref [17]; cited from earlier work
Text: To test the conservation of plant responses to SCOOPs, we measured the production of ROS—a hallmark of LRR-RK activation—triggered by SCOOPs. […] The SCOOP SxS motif is unique across known plant-secreted signaling peptides in contrast to the N-terminal asparag ... || The S5 and S7 binding pockets were functionally validated by testing MIK2 variants using three experimental approaches; A) SCOOP12-binding to MIK2 ectodomain in vitro, B) SCOOP12-induced complex formation with its coreceptor BAK1 in vivo, and C) ROS production upon SCOOP treatments as a marker for receptor complex activation (Fig. 4 and SI Appendix, Fig. S6).

B. rapa MIK2 = assay: ROS production, B. rapa MIK2 expressed in N. benthamiana; type: cell-based, Brassica rapa; conditions: 1 μM SCOOP
Method: (§1) removed and ROS production was measured upon addition of a 100-μL assay solution which contained 10 μg/mL
(§2) horseradish peroxidase (P6782, Merck), 10 mM luminol and the treatment (1 μM SCOOP, 0.1 μM flg22 or H2O).
(§3) Luminescence was quantified with a HIGH-RESOLUTION PHOTON COUNTING SYSTEM (HRPCS218, Photek). Four
(§4) technical replicates per biological replicate (specified in Fig. S2) were quantified for each treatment, significant
(§5) differences were determined by performing a two-group Mann-Whitney U Test between each SCOOP treatment
(§6) and the mock treatment. R and the R-packages dplyr (v1.1.2), ggpubr (v.0.6.0), and ggplot2 (v3.4.2) were used to
(§7) analyze and plot the data. The resulting figure was edited in Corel-DRAW Home & Student x7.
(§8) Functional validation MIK2 homologues
(§9) All constructs were created using a hierarchical modular cloning approach facilitated by the MoClo toolkit and the
(§10) MoClo Plant Parts kit (25, 26). For recombinant expression, we used the previously published Arabidopsis MIK2
(§11) sequence (L0 level backbone, CZLp4829) (27), and MIK2 homologues were synthesized with domesticated BsaI […]
(§12) while using diverse Arabidopsis SCOOPs (AA sequences, Dataset S1) and fl g22. Biological replicates were quantified […]
(§13) H2O and rested for a minimum of 30 min in the dark. Two readings were taken in a TECAN SPARK plate reader every […]

R. islandica MIK2 = assay: ROS production, R. islandica MIK2 expressed in N. benthamiana; type: cell-based, Rorippa islandica; conditions: 1 μM SCOOP
Method: as §1, §2, §3, §4, §5, §6, §7, §8, §9, §10, §11, §12, §13

D. strictus MIK2 = assay: ROS production, D. strictus MIK2 expressed in N. benthamiana; type: cell-based, Diptychocarpus strictus; conditions: 1 μM SCOOP
Method: as §1, §2, §3, §4, §5, §6, §7, §8, §9, §10, §11, §12, §13

[1] = biological target: MIK2 ectodomain S292A (S7 binding pocket variant) (Arabidopsis thaliana, UniProt Q8VZG8 44-709, S292A); assay: ITC
Sequence of MIK2 ectodomain S292A (S7 binding pocket variant) (Q8VZG8 44-709 S292A): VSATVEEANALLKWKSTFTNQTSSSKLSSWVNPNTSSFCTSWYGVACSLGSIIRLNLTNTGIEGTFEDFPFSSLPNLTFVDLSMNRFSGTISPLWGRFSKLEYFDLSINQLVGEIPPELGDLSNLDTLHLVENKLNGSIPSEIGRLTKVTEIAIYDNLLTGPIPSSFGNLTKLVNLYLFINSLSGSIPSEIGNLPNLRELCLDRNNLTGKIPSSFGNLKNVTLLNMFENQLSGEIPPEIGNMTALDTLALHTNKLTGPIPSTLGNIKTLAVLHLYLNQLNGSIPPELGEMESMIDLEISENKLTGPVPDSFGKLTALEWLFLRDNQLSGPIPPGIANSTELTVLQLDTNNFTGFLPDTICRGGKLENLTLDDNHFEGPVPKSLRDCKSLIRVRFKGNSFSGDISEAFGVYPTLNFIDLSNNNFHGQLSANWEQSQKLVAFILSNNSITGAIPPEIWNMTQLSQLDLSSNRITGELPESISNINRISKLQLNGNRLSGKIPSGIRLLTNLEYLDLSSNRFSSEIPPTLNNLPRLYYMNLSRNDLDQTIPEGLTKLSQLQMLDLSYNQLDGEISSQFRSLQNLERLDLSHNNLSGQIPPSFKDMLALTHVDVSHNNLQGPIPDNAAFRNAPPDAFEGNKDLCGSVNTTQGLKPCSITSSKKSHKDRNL

[2] = biological target: T1, MIK2 (MALE DISCOVERER 1-INTERACTING …); assay: ITC

Molecule | ROS production upon SCOOP treatment in Arabidopsis (Arabidopsis Col-0) | SCOOP-induced ROS production (in words) (B. rapa MIK2) | SCOOP-induced ROS production (in words) (R. islandica MIK2) | SCOOP-induced ROS production (in words) (D. strictus MIK2) | Kd [1] [nM] | Kd [2] [nM]
RVPRSKSPPDRQW [SCOOP24] | robust ROS production | did not lead to significant ROS production |  |  |  | 
YVPPSKSRRGKGP [SCOOP16] | robust ROS production |  | conferred responsiveness | conferred responsiveness |  | 
PVRSSQSSQAGGR [SCOOP12 (SERINE RICH ENDOGENOUS PEPTIDE 12), synthetic peptide] |  |  |  |  | 1240 | 2120

— article PMC11331138, “Leveraging coevolutionary insights and AI-based structural modeling to unravel receptor–peptide ligand-binding mechanisms” (Proceedings of the National Academy of Sciences of the …, 2024)
